In series [1] the test system is Artemia. In words: Toxicity to brine shrimp. The series is classed as organism-based. Particulars: in vivo.
Series [2] deals with Cladosporium cladosporioides. In words: Antifungal activity against Cladosporium cladosporioides assessed as inhibition of spore germination. The series is classed as functional, organism-based.

Usually LC50 stands for the concentration that kills 50% of the test population. The low end stands for a more lethal substance, the high end for a less lethal substance. In the case of `CCCC[C@@]12C3CCN1[C@H]1C[C@H]2O[C@@]32O/C(=C3\OC(=O)C(C)=C3OC)[C@@H](C)[C@H]12` [STEMOFOLINE], the LC50 in series [1] is reported as above 33 ppm. Further, the EC50 in series [2] is above 219 ppm.

For `CC[C@H](O)C[C@@]12[C@@H]3C[C@H]4[C@H]5[C@H](C)/C(=C6/OC(=O)C(C)=C6OC)O[C@]5(O3)[C@H]1CCN42` [2'-HYDROXYSTEMOFOLINE], the LC50 in series [1] is above 33 ppm. In addition, the EC50 in series [2] is reported as above 219 ppm.

For the origin of these results see ChEMBL document CHEMBL1148929, “Phytochemical studies on Stemona burkillii prain: two new dihydrostemofoline alkaloids” (J Nat Prod, 2004).
